According to patent publication US20210180138A1, “METHODS FOR PROGNOSIS AND TREATMENT OF SOLID TUMORS” (CUREWIZE HEALTH LTD., priority 2017, published 2021):

Experiments:
[1] = tested on: breast cancer (MCF7) cell line; assay: Cell viability, XTT tetrazolium colorimetric assay; format: cell-based; settings: 24 hours, 1 nM, 10 nM and 100 nM, vs DMSO control
Experimental: (§1) FK866 is a potent NAMPT inhibitor that causes the depletion of intracellular NAD+ levels in the cell and ultimately induces apoptosis and cell death. To characterize the effect of FK866 on prostate cancer (PC-3), colon cancer (Caco-2) and breast cancer (MCF7) cell lines, the effects of FK866 on cell death were evaluated. Cells were either control cells, treated with DMSO only, or were treated for 24 hours with 1 nanomolar (nM), 10 nM and 100 nM of FK866, and cell viability was measured using an XTT tetrazolium colorimetric assay.

[2] = tested on: colon cancer (Caco-2) cell line; assay: Cell viability, XTT tetrazolium colorimetric assay; format: cell-based; settings: 24 hours, 1 nM, 10 nM and 100 nM, vs DMSO control
Experimental: as §1

[3] = tested on: prostate cancer (PC-3) cell line; assay: Cell viability, XTT tetrazolium colorimetric assay; format: cell-based; settings: 24 hours, 1 nM, 10 nM and 100 nM, vs DMSO control
Experimental: as §1

[4] = tested on: prostate cancer PC3 cell line; assay: In-vivo xenograft model, sensitivity to FK866 by miR-451 expression; design: species or system mice; settings: for change in tumor growth between non-treated and treated group: 15 mg/kg once a day for 5 days repeated weekly
Experimental: The effect of miR-451 expression levels on efficacy of NAMPT inhibitor was evaluated in an in-vivo xenograft mouse model as in Example 4A. The sensitivity of each prostate cancer cell line (miR-451, antagomiR-451 and scramble miR control) to FK866 treatment was examined in vivo. Twenty mice were injected with each cell line and were divided into two groups: 10 mice were treated with FK866 (15 mg/kg) once a day for 5 days repeated weekly and 10 served as controls, in which no NAMPT inhibitor was injected. The volume of the tumors was measured daily and mice were treated with FK866 from the day all tumors were clinically evident. Treatment with the drug started from day 13 and within 5 days of treatment a change in tumor size was observed between the antagomiR-451 group treated with FK866 and the antagomiR-451 receiving no treatment (FIG. 5A).

[5] = tested on: miR-451; assay: miR-451 expression by RT-qPCR in stable transfected lines; format: cell-based
Experimental: The effect of miR-451 expression level on prostate cancer (PC-3), and breast cancer (MCF7) cell line tumor cells was evaluated in-vitro. Stable lines of each malignancy expressing miR-451 mimic and antagomiR-451 were obtained and transfected as in example 1. miR-451 expression levels in each cell line were validated by quantitative Real Time PCR (RT-qPCR). Total RNA was isolated from 10^7 cells using Qiagen RNeasy isolation kit according to the manufacturer's instruction (Qiagen, Hilden, Germany). 100 ng RNA was converted to cDNA using universal cDNA synthesis kit (Exiqon, Vedbaek, Denmark). RT-qPCR for the miR-451 was performed using Locked-nucleic Acid (LNA™) primers sets (Exiqon, Vedbaek, Denmark). 5S Ribosomal RNA was used as a reference gene. The RT-qPCR reactions were performed in duplicates on the LightCycler 480 (Roche, Rotkreuz, Switzerland) apparatus. The results were expressed as relative expression using the delta Ct method.

[6] = tested on: MCF7 cells; assay: In-vivo xenograft model, tumor growth by miR-451 expression; settings: MCF7 xenograft in NSG mice; end of experiment; antagomiR-451 cells compared with miR-451 mimic
Experimental: (§2) The effect of miR-451 expression levels on tumor cell growth was evaluated in an in-vivo xenograft mice model using MCF7 cells and PC3 cells. Ten million cells harboring antagomiR-451 and miR-451 mimic were injected subcutaneously into the right flanks of 6-8 weeks-old immunodeficient NSG (NOD scid gamma) mice. Ten mice were injected with the MCF7 antagomiR-451 cell line and 11 mice were injected with the miR-451 mimic line. Ten mice were injected with the PC3 antagomiR-451 cell line and the PC3 miR-451 mimic cell line and 8 with the scrambled miR control cell line. The volume of the tumors was measured daily from the day the tumors were clinically evident in all mice.

[7] = tested on: PC3 cells; assay: as above; settings: PC3 xenograft in NSG mice; end of experiment; antagomiR-451 cells compared with miR-451 mimic
Experimental: as §2

[8] = tested on: miR-451; assay: miR expression after transient transfection with miR-451 mimic; format: cell-based; settings: PC-3, Caco-2, MCF7 cells transiently transfected, 200 pmol; compared to control cells transfected with scramble miR
Experimental: (§3) A study was performed to determine if NAMPT is regulated by miR-451 in a representative cell line of each malignancy. Cells comprising prostate cancer (PC-3), colon cancer (Caco-2) and breast cancer (MCF7) cell lines were transiently transfected with a miR-451 mimic while “scrambled” miR-451 served as a control. The prostate cancer (PC-3), colon cancer (Caco-2), and breast cancer (MCF7) cells were obtained from ATCC and cultured according to ATCC growth recommendation. Two hundred pmol miR-451 mimic and 200 pmol scramble miR (IDT, Jerusalem, Israel) were transiently transfected by JETPRIME (Polyplus-transfection) into cells according to manufacturer's instructions.
NAMPT protein expression was determined using FACS as follows: […]

[9] = tested on: NAMPT; assay: NAMPT protein expression by FACS in transfected cells; format: cell-based; settings: PC-3, Caco-2 and MCF7 cell lines; 48 hours after transfection; compared to control scramble-miR cells
Experimental: as §3
One to two million transfected cells were collected 48 hours after transfection and fixed using 500 μl BD phosflow fix buffer I (BD Biosciences, San Jose, Calif., USA) for 15 minutes. Then, pellets were washed twice using PBS and resuspended in 500 μl methanol. Samples were incubated for 2 hours in −20° C. […] The cells were analyzed on flow cytometer (FACSCalibur, Becton Dickinson, Le Pont-De-Claix, France) using BD CellQuest™ Pro software.
FIG. 1 presents NAMPT protein expression level analyzed by FACS using a specific anti-NAMPT antibody in prostate cancer (PC-3), colon cancer (Caco-2) and breast cancer (MCF7) cell lines.

**Q.** For `O=C(/C=C/c1cccnc1)NCCCCC1CCN(C(=O)c2ccccc2)CC1` [FK866], which cell viability [1] is on record?
**A.** gradual decrease in cell viability

**Q.** And the cell viability [2]?
**A.** gradual decrease in cell viability

**Q.** What about the cell viability [3] of the same compound?
**A.** gradual decrease in cell viability

**Q.** And the “time of treatment until change in tumor size observed vs no treatment” value ([4]; PC3 antagomiR-451 group, treatment started from day 13, 15 mg/kg)?
**A.** ≤ 5 days

**Q.** And the “change in tumor growth between non-treated and treated group” value ([4]; mice injected with PC3 antagomiR-451 cells)?
**A.** major change in tumor growth

**Q.** And the “change in tumor growth between non-treated and treated group” value ([4]; mice injected with PC3 miR-451 mimic cells)?
**A.** moderate to almost no change in tumor growth

**Q.** And the “change in tumor growth between non-treated and treated group” value ([4]; mice injected with PC3 scramble miR control cells)?
**A.** moderate to almost no change in tumor growth

**Q.** Which results are given for “antagomiR-451: SEQ ID NO: 3 is the nucleotide sequence of antagomiR-451 (antisense AATGATCTGTAACGGTTT; listed as DNA, chemistry not given here)”?
**A.** decrease in miR-451 expression ([5]; PC3 cells, compared to PC3 control cells): 67%; tumor volume [6]: significant increase in tumor volume; tumor volume [7]: significant increase in tumor volume

**Q.** What does the source list for “miR-451 mimic: SEQ ID NO: 1 is the nucleotide sequence of miR-451 mimic (AAACCGUUACCAUUACUGAGUU; listed as RNA, chemistry not given here)”?
**A.** increase in the expression levels of the miR [8]: 3 fold; NAMPT protein expression level [9]: reduction in NAMPT expression; level in miR-451 ([5]; MCF7 cells, mimic compared with MCF7 cells transfected with antagomiR-451): twice as high; increase in miR-451 expression ([5]; PC3 cells, compared with control (PC3 cells transfected with miR scramble)): tenfold increase
